Converted amounts (≈) assume the structure as drawn.
Key:
Assay in all cases: in vitro antibacterial evaluation, MIC by broth dilution
Format in all cases: cell-based
[1] = tested on: Streptococcus sp.; conditions: broth dilution, 18 hours at 35° C.
Method in brief: (§1)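 Following National Committee for Clinical Laboratory Standards recommendations (M7-A2), susceptibility was measured by dilution in Muller-Hinton II […]. Bacteria were seeded at 5×10^5 CFU/mL against compound concentrations from 64 down to 0.06 μg/mL.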

[2] = tested on: Enterococcus sp.; conditions: broth dilution, 18 hours at 35° C.
Method in brief: as §1

[3] = tested on: Escherichia coli; conditions: 18 hours at 35° C.
Method in brief: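 MIC = lowest antibiotic concentration preventing visible growth; inoculum 5×10^5 CFU/mL; drug range 64-0.06 μg/mL; Muller-Hinton II […]; NCCLS M7-A2 guidance.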

[4] = tested on: Staphylococcus sp.; conditions: broth dilution, 18 hours at 35° C.
Method in brief: as §1

MIC Streptococcus agalactiae (GC 4564) ([1]; strain GC 4564): 2 mg/L (≈ 1.39 µM)
MIC Streptococcus pyogenes (ID-3187) ([1]; strain ID-3187): 2 mg/L (≈ 1.39 µM)
MIC Enterococcus avium (GC 4558) ([2]; Enterococcus avium (GC 4558)): 32 mg/L (≈ 22.3 µM)
MIC Enterococcus faecalis (ATCC 29212) ([2]; Enterococcus faecalis (ATCC 29212)): 32 mg/L (≈ 22.3 µM)
MIC Enterococcus faecalis (GC 4553) ([2]; Enterococcus faecalis (GC 4553)): 32 mg/L (≈ 22.3 µM)
MIC Enterococcus faecalis (GC 4554) ([2]; Enterococcus faecalis (GC 4554)): 32 mg/L (≈ 22.3 µM)
MIC Enterococcus faecium (GC 2243) ([2]; Enterococcus faecium (GC 2243)): 32 mg/L (≈ 22.3 µM)
MIC Enterococcus faecium (GC 4556) ([2]; Enterococcus faecium (GC 4556)): 32 mg/L (≈ 22.3 µM)
MIC Enterococcus faecium (GC 4557) ([2]; Enterococcus faecium (GC 4557)): 8 mg/L (≈ 5.57 µM)
MIC Enterococcus faecalis (ATCC 29212) ([2]; strain ATCC 29212): 32 mg/L (≈ 22.3 µM)
MIC Enterococcus faecalis (GC 2242) ([2]; strain GC 2242): 16 mg/L (≈ 11.1 µM)
MIC Enterococcus faecium (GC 2243) ([2]; strain GC 2243): 32 mg/L (≈ 22.3 µM)
MIC Enterococcus faecalis (GC 4552) ([2]; strain GC 4552): 32 mg/L (≈ 22.3 µM)
MIC Enterococcus faecalis (GC 4553) ([2]; strain GC 4553): 32 mg/L (≈ 22.3 µM)
MIC Enterococcus faecalis (GC 4554) ([2]; strain GC 4554): 32 mg/L (≈ 22.3 µM)
MIC Enterococcus faecium (GC 4556) ([2]; strain GC 4556): 32 mg/L (≈ 22.3 µM)
MIC Enterococcus faecium (GC 4557) ([2]; strain GC 4557): 8 mg/L (≈ 5.57 µM)
MIC Enterococcus avium (GC 4558) ([2]; strain GC 4558): 32 mg/L (≈ 22.3 µM)
MIC Escherichia coli (ATCC 25922) ([3]; Escherichia coli (ATCC 25922)): >64 mg/L
MIC Escherichia coli (GC 4559) ([3]; Escherichia coli (GC 4559)): >64 mg/L
MIC Escherichia coli (GC 4560) ([3]; Escherichia coli (GC 4560)): 4 mg/L (≈ 2.79 µM)
MIC Coagulase Negative Staphylococcus (GC 4547) [4]: 4 mg/L (≈ 2.79 µM)
MIC Coagulase Negative Staphylococcus (GC 4548) [4]: 4 mg/L (≈ 2.79 µM)
MIC Coagulase Negative Staphylococcus (GC 4549) [4]: 4 mg/L (≈ 2.79 µM)
MIC Coagulase Negative Staphylococcus (GC 4551) [4]: 4 mg/L (≈ 2.79 µM)
MIC Staphylococcus aureus (ATCC 29213) [4]: 8 mg/L (≈ 5.57 µM)
MIC Staphylococcus aureus (GC 1131) [4]: 8 mg/L (≈ 5.57 µM)
MIC Staphylococcus aureus (GC 4541) [4]: 8 mg/L (≈ 5.57 µM)
MIC Staphylococcus aureus (GC 4542) [4]: 8 mg/L (≈ 5.57 µM)
MIC Staphylococcus aureus (GC 4544) [4]: 8 mg/L (≈ 5.57 µM)
MIC Staphylococcus aureus (GC 4545) [4]: 4 mg/L (≈ 2.79 µM)
MIC Staphylococcus aureus-SMITH (GC 4543) [4]: 4 mg/L (≈ 2.79 µM)
MIC Staphylococcus aureus (ATCC 29213) ([4]; strain ATCC 29213): 8 mg/L (≈ 5.57 µM)
MIC Staphylococcus aureus (GC 1131) ([4]; strain GC 1131): 8 mg/L (≈ 5.57 µM)
MIC Staphylococcus aureus (GC 4541) ([4]; strain GC 4541): 8 mg/L (≈ 5.57 µM)
MIC Staphylococcus aureus (GC 4542) ([4]; strain GC 4542): 8 mg/L (≈ 5.57 µM)
MIC Staphylococcus aureus (GC 4544) ([4]; strain GC 4544): 8 mg/L (≈ 5.57 µM)
MIC Staphylococcus aureus (GC 4545) ([4]; strain GC 4545): 4 mg/L (≈ 2.79 µM)
MIC Coagulase Negative Staphylococcus (GC 4547) ([4]; strain GC 4547): 4 mg/L (≈ 2.79 µM)
MIC Coagulase Negative Staphylococcus (GC 4548) ([4]; strain GC 4548): 4 mg/L (≈ 2.79 µM)
MIC Coagulase Negative Staphylococcus (GC 4549) ([4]; strain GC 4549): 4 mg/L (≈ 2.79 µM)
MIC Coagulase Negative Staphylococcus (GC 4551) ([4]; strain GC 4551): 4 mg/L (≈ 2.79 µM)
MIC Staphylococcus aureus-SMITH (GC 4543) ([4]; strain SMITH GC 4543): 4 mg/L (≈ 2.79 µM)
Structure (SMILES): CC(=O)OCC1OC(OC2C(CO)OC(Oc3ccc(CC4NC(=O)C(C(C)c5ccccc5)NC(=O)CNC(=O)C(CO)NC(=O)C(C(O)C5CNC(=N)N5C5OC(CO)C(O)C(O)C5O)NC(=O)C(C(O)C5CNC(=N)N5)NC4=O)cc3)C(O)C2O)C(O)C(OC(=O)CCC(C)C)C1O (stereo not drawn) [Example 270b, Cyclo[glycyl-β-methylphenylalanyl-O-[4-O-[6-O-acetyl-3-O-(4-methylpentanoyl)hexopyranosyl]hexopyranosyl]tyrosyl-3-(2-iminoimidazolidin-4-yl)seryl-3-(3-hexopyranosyl-2-iminoimidazolidin-4-yl)serylseryl]]
MIC Staphylococcus haemolyticus (GC 4546) [4]: 4 mg/L (≈ 2.79 µM)
MIC Staphylococcus haemolyticus (GC 4546) ([4]; strain GC 4546): 4 mg/L (≈ 2.79 µM)

Source: patent publication US6914045B2, “Glycopeptide antibiotics” (Wyeth Holdings Corporation, priority 2001, dated 2005)
